How the values were obtained:
[1] = system: Beagle dogs; experiment: Subchronic toxicity test in Beagle dogs: hematology; assay type: in vivo; details: dogs
Experimental: (§1) HZ1006 was administered orally to dogs (four/sex/group) at doses of 80, 40, 20, 5 and 0 (control) mg/kg/day, and the dosage volume was 2 mL/kg. The dogs received test doses with the exact amounts on a weekly basis based on current body weights. […] The other dogs in the above groups were dissected on the planned days. For the other groups, half of the dogs were anatomized on d28 and the remaining half on d42.
The following indexes were examined for the dogs used in the study, twice during the pre-dosage period and on d14, d28 and d42. The following parameters were evaluated on d28 and d42 for the rats in the study:
Blood samples of the animals were collected in tubes containing ethylenediamine tetraacetic acid (EDTA) and tested using an ADVIA2120 Hematology Autoanalyzer (Bayer, Leverkusen, Germany). The following indexes were examined: hemoglobin concentration (Hb), red blood cell count (RBC),mean corpuscular volume (MCV), hematocrit (HCT), mean corpuscular hemoglobin concentration (MCHC), mean corpuscular hemoglobin (MCH), white blood cell count (WBC), platelet count (Plt), WBC differential counts [neutrophilcyte (Neu), eosinophilic granulocyte (Eos), basophilic leukocyte (Bas), lymphocyte (Lym), and monocyte (Mon)] and reticulocytes (Ret). The serum coagulation times of the blood samples (1.8-mL samples were mixed with 0.2 mL sodium citrate), including prothrombin time (PT), fibrinogen (FIB), activated partial thromboplastin time (APTT), and thrombin time (TT), were tested using an MC10 plus Blood Coagulation Analyzer from Shanghai San Jose Medical Products Co., Ltd. (Shanghai, China).

[2] = system: Beagle dogs; experiment: Subchronic toxicity test in Beagle dogs: overall (NOAEL, urinalysis, ECG); assay type: in vivo
Experimental: as §1
Clinical symptoms and mortality were examined at least twice daily during the 42-day period, which included any changes in reaction to treatment, behavior, illness, food consumption, and body weight. Breathing rates, rectal temperature and pupil changes in the Beagle dogs were assessed once every 2 weeks.
The parameters of the dogs’ ECG included the Heart rate, Time at R, P Duration, P-R interval, T Duration, QRS Durations, Q-T Intervals and ST Segment, which were examined by an ECG6511 ECG instrument (manufactured by Shanghai Kohden Medical Electronic Instrument Corp., Shanghai, China) on d0 (twice), d14, d28 and d42 using the II limb lead method.
A Micro AUTION MA-4260 Autoanalyzer from Arkray Global Business, Inc. (kyoto, Japan), was used to analyze the animal urine samples. Parameters such as pH, specific gravity, nitrites, leukocytes, glucose, protein, urobilinogen, ketones, occult blood, bilirubin, and hemoglobin were tested.

[3] = 20 mg/kg/day oral, d42 (recovery)
[4] = 40 mg/kg/day oral, d0 (pre-dose)
[5] = 40 mg/kg/day oral, d42 (recovery)
[6] = 80 mg/kg/day oral, d0 (pre-dose)
[7] = 80 mg/kg/day oral, d42 (recovery)

## CCCCCCCNc1cc(/C=C/C(=O)NO)ccc1OCCN(CC)CC [HZ1006]
[1]; [3]
  MON: Monocyte: 5.8 ± 1.0%
  RBC: Red blood cell count: 5.96 ± 0.13 ×10^12/L
  RET: Reticulocytes: 0.83 ± 0.23%
[1]; [4]
  APTT: Activated partial thromboplastin time: 12.8 ± 0.5 s
  FIB: Fibrinogen: 4.84 ± 0.89 g/L
  HCT: Hematocrit: 41.7 ± 2.0%
  HGB: Hemoglobin concentration: 139 ± 6 g/L
  MON: Monocyte: 6.0 ± 1.8%
  RBC: Red blood cell count: 6.01 ± 0.31 ×10^12/L
  RET: Reticulocytes: 0.86 ± 0.17%
[1]; 40 mg/kg/day oral, d14
  APTT: Activated partial thromboplastin time: 16.8 ± 0.7 s
  FIB: Fibrinogen: 7.19 ± 1.58 g/L
  HCT: Hematocrit: 35.5 ± 2.6 %
  HGB: Hemoglobin concentration: 114 ± 8 g/L
  MON: Monocyte: 9.2 ± 5.3%
  RBC: Red blood cell count: 5.6 ± 0.36 ×10^12/L
  RET: Reticulocytes: 0.13 ± 0.11 %
[1]; 40 mg/kg/day oral, d28
  APTT: Activated partial thromboplastin time: 12.8 ± 0.8 s
  FIB: Fibrinogen: 4.93 ± 1.22 g/L
  HCT: Hematocrit: 32.8 ± 2.8 %
  HGB: Hemoglobin concentration: 105 ± 9 g/L
  MON: Monocyte: 11.6 ± 4.5 %
  RBC: Red blood cell count: 5.00 ± 0.47 ×10^12/L
  RET: Reticulocytes: 0.51 ± 0.22 %
[1]; [5]
  APTT: Activated partial thromboplastin time: 12.9 ± 0.8 s
  FIB: Fibrinogen: 4.22 ± 1.25 g/L
  HCT: Hematocrit: 39.7 ± 0.1%
  HGB: Hemoglobin concentration: 124 ± 1 g/L
  MON: Monocyte: 6.4 ± 3.5%
  RBC: Red blood cell count: 5.96 ± 0.06 ×10^12/L
  RET: Reticulocytes: 0.89 ± 0.65%
[1]; [6]
  APTT: Activated partial thromboplastin time: 13.4 ± 0.6 s
  FIB: Fibrinogen: 3.80 ± 0.84 g/L
  HCT: Hematocrit: 40.3 ± 3.0%
  HGB: Hemoglobin concentration: 134 ± 10 g/L
  MON: Monocyte: 5.0 ± 0.8%
  RBC: Red blood cell count: 5.92 ± 0.42 ×10^12/L
  RET: Reticulocytes: 0.92 ± 0.27%
[1]; 80 mg/kg/day oral, d14
  APTT: Activated partial thromboplastin time: 16.2 ± 3.0 s
  FIB: Fibrinogen: 7.06 ± 2.14 g/L
  HCT: Hematocrit: 33.4 ± 2.6 %
  HGB: Hemoglobin concentration: 107 ± 8 g/L
  MON: Monocyte: 19.7 ± 19.7 %
  RBC: Red blood cell count: 5.09 ± 0.42 ^##^,* ×10^12/L
  RET: Reticulocytes: 0.08 ± 0.12 %
[1]; 80 mg/kg/day oral, d28
  APTT: Activated partial thromboplastin time: 12.5 ± 0.5 s
  FIB: Fibrinogen: 6.69 ± 0.62 g/L
  HCT: Hematocrit: 26.9 ± 1.7 %
  HGB: Hemoglobin concentration: 86 ± 5 g/L
  MON: Monocyte: 12.5 ± 2.9 %
  RBC: Red blood cell count: 4.17 ± 0.33 ×10^12/L
  RET: Reticulocytes: 0.21 ± 0.16 %
[1]; [7]
  APTT: Activated partial thromboplastin time: 12.7 ± 0.9 s
  FIB: Fibrinogen: 3.72 ± 2.00 g/L
  HCT: Hematocrit: 37.5 ± 3.1%
  HGB: Hemoglobin concentration: 126 ± 4 g/L
  MON: Monocyte: 5.0 ± 1.9%
  RBC: Red blood cell count: 5.71 ± 0.50 ×10^12/L
  RET: Reticulocytes: 0.88 ± 0.27%
[2]; 5-80 mg/kg/day oral
  ECG examination: no dose-related changes
  urinalysis: no dose-related changes
[2]; daily oral administration, 28 days
  minimum toxic dose: 20 mg/kg

From paper PMC5201331, “Subchronic Toxicities of HZ1006, a Hydroxamate-Based Histone Deacetylase Inhibitor, in Beagle Dogs and Sprague-Dawley Rats” (International Journal of Environmental Research and Public …, 2016)
